Experimental data taken from patent US20260209214A1, “LSD1 MODULATORS” (RECURSION PHARMACEUTICALS, INC., priority 2022, published 2026).
Where a name gives a salt, the structure may show the parent alone.

Target: Recombinant human LSD1 (Homo sapiens, UniProt O60341)
Experiment: LSD1 inhibition assay (HTRF LSD1 Histone H3K4 mono-demethylation assay, me1->me0)
Assay type: biochemical
Conditions: 20 nM recombinant human LSD1, 95 nM H3K4(me1) biotinylated peptide, 15 min preincubation, 60 min at 25° C., read-out: LSD1 inhibition IC50 (nM range)
Outline: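 Recombinant human LSD1 (20 nM) pre-incubated 15 min with 10 semi-log compound doses, then 95 nM biotinylated H3K4me1 peptide for 60 min at 25 °C in pH 8.5 Tris/NaCl buffer with 10 μM FAD, 1 mM DTT. HTRF me0-antibody read after 90 min; IC50 from 4-parameter fit.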

CC1(F)CCN(c2ccc(CC3CNCCO3)cc2-c2ccc(C#N)c(F)c2)CC1 (stereo not drawn) [Example 99, 3-fluoro-2′-(4-fluoro-4-methylpiperidin-1-yl)-5′-[(morpholin-2-yl)methyl]-[1,1′-biphenyl]-4-carbonitrile]
IC50: 100 to 1000 nM

N#Cc1ccc(-c2cc(CC3CNCCO3)ccc2N2CCC(C3CCOC3)CC2)cc1F (stereo not drawn) [Example 100, 3-fluoro-5′-[(morpholin-2-yl)methyl]-2′-[4-(oxolan-3-yl)piperidin-1-yl]-[1,1′-biphenyl]-4-carbonitrile]
IC50: 25 to 100 nM

N#Cc1ccc(-c2cc(CC3CNCCO3)ccc2N2CC(c3ccc(C4CC4)nc3)C2)cc1F (stereo not drawn) [Example 101, 2′-[3-(6-cyclopropylpyridin-3-yl)azetidin-1-yl]-3-fluoro-5′-[(morpholin-2-yl)methyl]-[1,1′-biphenyl]-4-carbonitrile]
IC50: 100 to 1000 nM

N#Cc1ccc(-c2cc(CC3CNCCCO3)ccc2N2CCC2)cc1F (stereo not drawn) [Example 102, 2′-(azetidin-1-yl)-3-fluoro-5′-[(1,4-oxazepan-2-yl)methyl]-[1,1′-biphenyl]-4-carbonitrile]
IC50: 25 to 100 nM

CC1(C)CNCC(Cc2cccc(-c3ccc(C#N)cc3)c2-c2cncs2)O1 (stereo not drawn) [Example 103, 3′-[(6,6-dimethylmorpholin-2-yl)methyl]-2′-(1,3-thiazol-5-yl)-[1,1′-biphenyl]-4-carbonitrile]
IC50: 10 to 25 nM

CC(C)(O)Cc1ccc(-c2ccc(CC3CNCCO3)cc2-c2ccc(C#N)c(F)c2)c(F)c1 (stereo not drawn) [Example 104, 3-fluoro-2′-[2-fluoro-4-(2-hydroxy-2-methylpropyl)phenyl]-5′-[(morpholin-2-yl)methyl]-[1,1′-biphenyl]-4-carbonitrile]
IC50: 25 to 100 nM

N#Cc1ccc(-c2cc(CC3CNCCO3)ccc2N2CCN(CC(F)F)CC2)cc1F (stereo not drawn) [Example 105, 2′-[4-(2,2-difluoroethyl)piperazin-1-yl]-3-fluoro-5′-[(morpholin-2-yl)methyl]-[1,1′-biphenyl]-4-carbonitrile]
IC50: 100 to 1000 nM

N#Cc1ccc(-c2cc(CC3CNCCO3)ccc2COc2cccnc2)cc1F (stereo not drawn) [Example 106, 3-fluoro-5′-[(morpholin-2-yl)methyl]-2′-[(pyridin-3-yloxy)methyl]-[1,1′-biphenyl]-4-carbonitrile]
IC50: 100 to 1000 nM

N#Cc1ccc(-c2cc(CC3CNCCO3)ccc2N2CC(c3cccnc3)C2)cc1F (stereo not drawn) [Example 107, 3-fluoro-5′-[(morpholin-2-yl)methyl]-2′-[3-(pyridin-3-yl)azetidin-1-yl]-[1,1′-biphenyl]-4-carbonitrile]
IC50: 100 to 1000 nM

N#Cc1ccc(-c2cccc(N3CCC4NCCC4C3)c2-c2ccns2)cc1F (stereo not drawn) [Example 108, 3-fluoro-3'-{octahydro-1H-pyrrolo[3,2-c]pyridin-5-yl}-2'-(1,2-thiazol-5-yl)-[1,1'-biphenyl]-4-carbonitrile]
IC50: < 10 nM

N#Cc1ccc(-c2cccc(CC3CCNC3)c2-c2ccns2)cc1F (stereo not drawn) [Example 109, 2-fluoro-4-[2-isothiazol-5-yl-3-(pyrrolidin-3-ylmethyl)phenyl]benzonitrile; hydrochloride]
IC50: < 10 nM

N#Cc1ccc(-c2cccc(N3CCC(N)CC3)c2-c2ccns2)cc1F [Example 110, 3'-(4-aminopiperidin-1-yl)-3-fluoro-2'-(1,2-thiazol-5-yl)-[1,1'-biphenyl]-4-carbonitrile]
IC50: 10 to 25 nM

N#Cc1ccc(-c2cccc(CC3CCOCC3)c2-c2ccns2)cc1F [Example 111, 3-fluoro-3′-[(oxan-4-yl)methyl]-2′-(1,2-thiazol-5-yl)-[1,1′-biphenyl]-4-carbonitrile]
IC50: 25 to 100 nM

N#Cc1ccc(-c2cccc(OC3CC4CNC3C4)c2-c2ccns2)cc1F (stereo not drawn) [Example 112, 3′-{2-azabicyclo[2.2.1]heptan-6-yloxy}-3-fluoro-2′-(1,2-thiazol-5-yl)-[1,1′-biphenyl]-4-carbonitrile]
IC50: 10 to 25 nM

Cc1sncc1-c1c(CC2CNCCO2)cccc1-c1ccc(C#N)c(F)c1 [Example 113, (2R,3R)-2,3-dihydroxybutanedioic acid; 2-fluoro-4-[2-(5-methylisothiazol-4-yl)-3-(morpholin-2-ylmethyl)phenyl]benzonitrile]
IC50: 100 to 1000 nM
